Columns and labels:
Experiment in all cases: PTP panel IC50, 60-min preincubation
Assay type in all cases: biochemical
MKP5 = molecular target: T1, MKP5 (Homo sapiens, UniProt Q9Y6W6)
T1 construct: MKP5, residues 320-647; made in house; host or cells: E. coli BL21(DE3)
Excerpt: (§1) Building on the results from the SAR “by‐catalog” study, the following medicinal chemistry effort was prioritized on a systematic survey of the central phenyl scaffold, the sulfonamide linker, and the distal aryl moiety with the goal of a multiparameter optimization of potency and selectivity for SHP1 inhibition as well as drug‐like properties such as aqueous solubility and cell permeability. Additionally, given the crucial requirement for targeted covalent inhibitors to maintain tempered reactivity that enables selective target engagement and reduces cross‐reactivity to by‐standing nucleophiles in the cellular milieu,^[ [74], [75] ^] the medicinal chemistry campaign also sought to lower SHP1 covalent inhibitor reactivity with GSH and cytotoxicity. Careful assessment and evaluation of the SAR and other desirable drug‐like attributes of all synthesized molecules led to the identification of M029 (Figure 2a and Figure S2D, manuscript in preparation). […] To determine the selectivity of M029 for SHP1, we measured the IC50 value for M029‐mediated inhibition of a number of PTPs after a 60‐min preincubation. […] To assess potential direct interactions between SHP1 and M029, we utilized the thermal shift assay to measure the thermal stability of SHP1 in the presence of M029. […] To corroborate the covalent interaction between SHP1 and M029, a single SHP1‐M029 covalent adduct was observed by electrospray protein mass spectrometry when SHP1 was incubated with M029 (Figure 2e). […] This is in line with the expectation that SHP1 inactivation by M029 occurs through nucleophilic substitution of the chlorine from the chloroacetamide warhead.
(§2) To further confirm the time-dependent inhibition and determine the IC50 of acquired hits, repurchased compounds from Enamine were serially diluted in a 96-well plate, followed by the addition of proteins at 200 nM. After 10-minute and 60-minute preincubation, 2 µL of the mixture was transferred into 100 µM 6,8-Difluoro-4-Methylumbelliferyl Phosphate (DiFMUP, Invitrogen, cat# D6567) at a final volume of 200 µL. The reaction was allowed to proceed for 5 minutes and quenched by the addition of 40 µl of a 160 µM solution of bpV(Phen) (Sigma-Aldrich, cat# SML0889). The fluorescence signal was measured using a CLARIOstar Plus Microplate Spectrophotometer (BMG Labtech) using excitation and emission wavelengths of 340 nm and 450 nm, respectively. Data were fitted using Prism GraphPad 10.1.1.

LMPTP = molecular target: T2, LMPTP (Homo sapiens, UniProt P24666)
T2 construct: LMWPTP, residues 1-158; made in house; host or cells: E. coli BL21(DE3)
T2 sequence (P24666 whole entry, the tested form may be a part): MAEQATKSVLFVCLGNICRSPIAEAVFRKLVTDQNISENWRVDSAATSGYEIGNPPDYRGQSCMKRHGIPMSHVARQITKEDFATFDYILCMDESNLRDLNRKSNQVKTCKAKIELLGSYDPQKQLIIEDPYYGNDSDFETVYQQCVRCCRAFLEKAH
Excerpt: as §1, §2

Ssu72 = Ssu72 (Homo sapiens, UniProt Q9NP77)
Ssu72, sequence (Q9NP77 whole entry, species assumed): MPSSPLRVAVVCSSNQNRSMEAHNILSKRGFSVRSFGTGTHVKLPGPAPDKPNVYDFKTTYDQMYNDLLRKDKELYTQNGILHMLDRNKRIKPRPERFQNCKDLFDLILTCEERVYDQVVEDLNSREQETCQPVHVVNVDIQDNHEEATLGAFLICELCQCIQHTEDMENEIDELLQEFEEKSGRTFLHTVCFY
Excerpt: as §1, §2

HePTP = molecular target: T3, HePTP (Homo sapiens, UniProt P35236)
T3 construct: HePTP, residues 22-360; made in house; host or cells: E. coli BL21(DE3)
T3 sequence (P35236 22-360): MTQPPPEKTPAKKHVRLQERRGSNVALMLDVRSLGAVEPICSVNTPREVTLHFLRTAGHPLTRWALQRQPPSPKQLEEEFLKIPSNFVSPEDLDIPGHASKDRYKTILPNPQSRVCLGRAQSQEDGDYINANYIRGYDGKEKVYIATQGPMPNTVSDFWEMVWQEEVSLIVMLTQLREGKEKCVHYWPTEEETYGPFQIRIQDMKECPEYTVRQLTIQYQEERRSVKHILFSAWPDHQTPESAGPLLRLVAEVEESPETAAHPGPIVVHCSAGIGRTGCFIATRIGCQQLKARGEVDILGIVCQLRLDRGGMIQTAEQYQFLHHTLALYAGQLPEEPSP
Excerpt: as §1, §2

CD45 = molecular target: T4, CD45 (Homo sapiens, UniProt P08575)
T4 construct: CD45, residues 620-1236; made in house; host or cells: E. coli BL21(DE3)
T4 sequence (P08575 620-1236, species assumed): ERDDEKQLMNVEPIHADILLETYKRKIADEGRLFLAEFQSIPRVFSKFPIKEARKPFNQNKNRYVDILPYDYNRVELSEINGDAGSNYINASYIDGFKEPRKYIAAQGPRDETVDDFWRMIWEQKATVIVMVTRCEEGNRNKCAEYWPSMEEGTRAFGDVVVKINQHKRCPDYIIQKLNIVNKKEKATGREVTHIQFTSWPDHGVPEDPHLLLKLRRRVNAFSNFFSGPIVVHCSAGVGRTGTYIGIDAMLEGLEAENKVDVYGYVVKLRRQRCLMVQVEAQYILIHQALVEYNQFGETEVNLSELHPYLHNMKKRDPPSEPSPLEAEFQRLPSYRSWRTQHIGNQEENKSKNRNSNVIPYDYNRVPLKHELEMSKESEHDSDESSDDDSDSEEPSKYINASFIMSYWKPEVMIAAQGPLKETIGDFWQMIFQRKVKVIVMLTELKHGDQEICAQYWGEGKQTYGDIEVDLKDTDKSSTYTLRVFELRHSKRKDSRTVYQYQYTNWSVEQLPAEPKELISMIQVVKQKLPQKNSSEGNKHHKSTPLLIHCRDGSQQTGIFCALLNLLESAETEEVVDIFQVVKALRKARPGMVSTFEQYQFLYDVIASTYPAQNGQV
Excerpt: as §1, §2

PEZ = PEZ (Homo sapiens, UniProt Q15678)
PEZ, sequence (Q15678 whole entry, species assumed): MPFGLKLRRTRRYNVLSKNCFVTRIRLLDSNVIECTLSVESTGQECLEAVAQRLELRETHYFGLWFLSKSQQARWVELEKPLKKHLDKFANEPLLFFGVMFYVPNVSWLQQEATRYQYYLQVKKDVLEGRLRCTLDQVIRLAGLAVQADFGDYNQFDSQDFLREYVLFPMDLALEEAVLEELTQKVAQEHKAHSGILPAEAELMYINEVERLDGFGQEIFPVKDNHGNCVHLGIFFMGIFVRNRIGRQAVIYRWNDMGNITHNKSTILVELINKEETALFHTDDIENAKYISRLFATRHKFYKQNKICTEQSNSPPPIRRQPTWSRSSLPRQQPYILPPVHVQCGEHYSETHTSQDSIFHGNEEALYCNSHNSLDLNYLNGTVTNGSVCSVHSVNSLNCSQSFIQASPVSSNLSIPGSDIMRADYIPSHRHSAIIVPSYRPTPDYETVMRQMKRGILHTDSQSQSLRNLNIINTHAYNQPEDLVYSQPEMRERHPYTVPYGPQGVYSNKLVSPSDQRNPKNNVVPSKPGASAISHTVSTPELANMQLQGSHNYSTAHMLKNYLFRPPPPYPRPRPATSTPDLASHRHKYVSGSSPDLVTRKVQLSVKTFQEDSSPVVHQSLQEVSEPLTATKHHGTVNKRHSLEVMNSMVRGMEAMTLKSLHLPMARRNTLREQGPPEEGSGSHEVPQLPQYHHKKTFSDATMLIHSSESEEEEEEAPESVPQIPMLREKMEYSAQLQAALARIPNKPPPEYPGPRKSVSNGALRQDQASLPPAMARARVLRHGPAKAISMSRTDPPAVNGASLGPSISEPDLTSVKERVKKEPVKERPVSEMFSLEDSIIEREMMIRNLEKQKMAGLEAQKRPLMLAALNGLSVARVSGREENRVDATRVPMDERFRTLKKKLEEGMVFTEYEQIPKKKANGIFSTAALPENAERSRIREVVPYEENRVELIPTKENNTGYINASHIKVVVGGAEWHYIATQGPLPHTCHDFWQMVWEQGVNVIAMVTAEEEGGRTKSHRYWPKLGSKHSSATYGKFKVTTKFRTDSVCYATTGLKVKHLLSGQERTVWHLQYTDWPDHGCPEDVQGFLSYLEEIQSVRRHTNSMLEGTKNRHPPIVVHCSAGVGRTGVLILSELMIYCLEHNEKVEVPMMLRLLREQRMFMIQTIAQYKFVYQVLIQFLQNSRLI
Excerpt: as §1, §2

STEP = molecular target: T5, STEP (Homo sapiens, UniProt P54829)
T5 construct: STEP, residues 258-539; made in house; host or cells: E. coli BL21(DE3)
T5 sequence (P54829 282-563, species assumed): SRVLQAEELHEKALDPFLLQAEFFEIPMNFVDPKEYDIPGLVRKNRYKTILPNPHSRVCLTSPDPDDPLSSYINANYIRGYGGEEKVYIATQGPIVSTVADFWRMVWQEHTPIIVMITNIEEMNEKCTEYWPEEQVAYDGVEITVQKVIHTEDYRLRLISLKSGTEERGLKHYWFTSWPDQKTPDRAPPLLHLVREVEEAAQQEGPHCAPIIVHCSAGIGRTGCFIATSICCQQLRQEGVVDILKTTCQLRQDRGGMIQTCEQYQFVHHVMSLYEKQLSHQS
Excerpt: as §1, §2

FAP1 = molecular target: T6, FAP1 (Homo sapiens, UniProt Q12923)
T6 construct: FAP1, residues 2124-2485; made in house; host or cells: E. coli BL21(DE3)
T6 sequence (Q12923 2124-2485): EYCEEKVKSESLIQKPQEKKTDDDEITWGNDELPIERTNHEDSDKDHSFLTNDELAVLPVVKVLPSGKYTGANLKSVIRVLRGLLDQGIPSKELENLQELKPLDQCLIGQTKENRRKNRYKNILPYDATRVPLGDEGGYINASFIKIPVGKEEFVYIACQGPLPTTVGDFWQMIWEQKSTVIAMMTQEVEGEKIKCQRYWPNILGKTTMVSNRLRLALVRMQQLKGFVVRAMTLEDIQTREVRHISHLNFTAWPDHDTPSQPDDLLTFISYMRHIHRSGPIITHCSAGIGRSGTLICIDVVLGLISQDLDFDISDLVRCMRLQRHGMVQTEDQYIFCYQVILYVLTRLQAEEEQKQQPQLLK
Excerpt: as §1, §2

CDC14A = molecular target: T7, CDC14A (Homo sapiens, UniProt Q9UNH5)
T7 construct: CDC14A, residues 1-413; made in house; host or cells: E. coli BL21(DE3)
T7 sequence (Q9UNH5 1-413, species assumed): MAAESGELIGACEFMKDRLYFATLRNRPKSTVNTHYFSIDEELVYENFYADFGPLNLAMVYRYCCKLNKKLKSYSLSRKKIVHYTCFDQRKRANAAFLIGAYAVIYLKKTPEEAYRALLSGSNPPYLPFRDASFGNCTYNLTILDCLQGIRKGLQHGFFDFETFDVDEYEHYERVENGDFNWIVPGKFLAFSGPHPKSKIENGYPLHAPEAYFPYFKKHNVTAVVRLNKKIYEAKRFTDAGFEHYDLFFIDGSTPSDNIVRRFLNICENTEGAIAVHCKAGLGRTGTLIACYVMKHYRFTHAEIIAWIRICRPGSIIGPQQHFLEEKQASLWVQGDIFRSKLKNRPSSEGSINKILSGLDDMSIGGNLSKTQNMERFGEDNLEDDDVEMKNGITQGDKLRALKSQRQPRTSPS
Excerpt: as §1, §2

PEST = molecular target: T8, PEST (Homo sapiens, UniProt Q05209)
T8 construct: PTP-PEST, residues 5-304; made in house; host or cells: E. coli BL21(DE3)
T8 sequence (Q05209 5-304): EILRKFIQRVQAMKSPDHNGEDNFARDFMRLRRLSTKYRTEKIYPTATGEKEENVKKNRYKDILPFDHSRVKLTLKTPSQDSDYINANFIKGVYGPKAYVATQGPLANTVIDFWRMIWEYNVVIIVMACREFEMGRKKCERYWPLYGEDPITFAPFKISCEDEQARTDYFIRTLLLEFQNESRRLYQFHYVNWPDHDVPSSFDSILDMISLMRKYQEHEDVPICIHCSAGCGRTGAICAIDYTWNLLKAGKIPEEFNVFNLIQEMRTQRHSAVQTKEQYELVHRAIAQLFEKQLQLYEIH
Excerpt: as §1, §2

TCPTP = molecular target: T9, TCPTP (Homo sapiens, UniProt P17706)
T9 construct: TC-PTP, residues 1-387; made in house; host or cells: E. coli BL21(DE3)
T9 sequence (P17706 1-387 isoform P17706-2): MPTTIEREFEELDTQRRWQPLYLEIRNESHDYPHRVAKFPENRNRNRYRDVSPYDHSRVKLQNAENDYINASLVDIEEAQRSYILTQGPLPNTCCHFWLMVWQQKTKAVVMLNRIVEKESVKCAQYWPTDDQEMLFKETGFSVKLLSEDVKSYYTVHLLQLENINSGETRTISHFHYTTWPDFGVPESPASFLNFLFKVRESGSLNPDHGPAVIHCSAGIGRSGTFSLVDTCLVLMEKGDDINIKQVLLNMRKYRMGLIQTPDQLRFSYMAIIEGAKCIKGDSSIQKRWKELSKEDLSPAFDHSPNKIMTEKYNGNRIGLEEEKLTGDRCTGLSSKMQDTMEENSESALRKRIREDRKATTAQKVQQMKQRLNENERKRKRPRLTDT
Excerpt: as §1, §2

VHR = VHR (Homo sapiens, UniProt P51452)
VHR, sequence (P51452 whole entry, species assumed): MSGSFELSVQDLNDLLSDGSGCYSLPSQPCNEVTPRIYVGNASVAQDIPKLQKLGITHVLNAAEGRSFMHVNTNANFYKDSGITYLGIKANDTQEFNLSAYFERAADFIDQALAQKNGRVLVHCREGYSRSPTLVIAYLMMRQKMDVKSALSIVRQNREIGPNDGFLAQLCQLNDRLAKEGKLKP
Excerpt: as §1, §2

PP5 = PP5 (Homo sapiens, UniProt P53041)
PP5, sequence (P53041 whole entry): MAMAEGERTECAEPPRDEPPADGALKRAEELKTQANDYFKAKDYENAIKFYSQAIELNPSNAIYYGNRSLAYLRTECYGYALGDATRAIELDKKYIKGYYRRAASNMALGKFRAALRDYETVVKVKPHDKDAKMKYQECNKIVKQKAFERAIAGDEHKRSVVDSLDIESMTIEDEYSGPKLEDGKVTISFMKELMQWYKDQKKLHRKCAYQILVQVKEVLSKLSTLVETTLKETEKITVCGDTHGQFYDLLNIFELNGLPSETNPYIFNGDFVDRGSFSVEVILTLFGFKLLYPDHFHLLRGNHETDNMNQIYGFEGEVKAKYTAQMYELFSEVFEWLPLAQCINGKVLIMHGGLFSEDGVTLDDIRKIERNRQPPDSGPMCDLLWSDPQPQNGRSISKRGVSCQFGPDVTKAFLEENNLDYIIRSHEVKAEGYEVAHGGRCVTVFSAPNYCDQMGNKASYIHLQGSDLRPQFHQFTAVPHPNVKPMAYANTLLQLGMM
Excerpt: as §1, §2

Work on `N#Cc1ccsc1NS(=O)(=O)c1ccc(NC(=O)CCl)cc1` [M029, 2-Chloro-N-(4-(N-(3-cyanothiophen-2-yl)sulfamoyl)phenyl)acetamide] yielded an IC50 (MKP5) of 165 ± 20.1 µM, an IC50 (LMPTP) of over 200 µM and an IC50 (Ssu72) of over 200 µM. The IC50 (HePTP) was over 200 µM, the IC50 (CD45) was 139 ± 38.5 µM and the IC50 (PEZ) was 172 ± 19.3 µM. It also gave an IC50 (STEP) of over 200 µM, an IC50 (FAP1) of over 200 µM and an IC50 (CDC14A) of over 200 µM. It also gave an IC50 (PEST) of over 200 µM, an IC50 (TCPTP) of 150 ± 31.1 µM and an IC50 (VHR) of 180 ± 46.8 µM. It also gave an IC50 (PP5) of over 200 µM.
